The target in one data set is Histone deacetylase 1 (Homo sapiens, UniProt Q13547). The experiment in a line: Inhibition of HDAC1 (unknown origin).
In data set [1] the test system is CAPAN-1. Nature of the data set: Antiproliferative activity against human CAPAN-1 cells. The format is functional, cell-based.
Data set [2] deals with CAPAN-1. The experiment in a line: Potency index, ratio of vorinostat IC50 to test compound IC50 for antiproliferative activity against human CAPAN-1 cells. The class given is functional.
Data set [3] concerns the target Bromodomain-containing protein 4 (Homo sapiens, UniProt O60885). Nature of the data set: Inhibition of BRD4 (unknown origin).
The subject of data set [4] is CAPAN-1. The experiment in a line: Antitumor activity against human CAPAN-1 cells xenografted in mouse assessed as tumor growth inhibition at 50 mg/kg, ip relative to control. The class given is functional. Particulars: read-out: TGI.
Data set [5] concerns CAPAN-1. Nature of the data set: Antitumor activity against human CAPAN-1 cells xenografted in mouse assessed as tumor growth inhibition at 100 mg/kg, ip relative to control. The class given is functional. Particulars: read-out: TGI.
Data set [6] in a line: Metabolic stability in human plasma assessed as half life by LC-MS/MS analysis. The format is ADME, cell-free.
A short description of data set [7]: Metabolic stability in human liver microsomes assessed as half life by LC-MS/MS analysis. The class given is ADME, Microsome. In general terms: Microsomes from liver hold many membrane-bound enzymes, among them those of drug oxidation.
In data set [8] the test system is MDA-MB-231. The experiment in a line: Antitumor activity against human MDA-MB-231 cells xenografted in BALB/c nude mouse assessed as tumor growth inhibition at 30 mg/kg/day, po measured every 3 days for 22 days relative to control. The class given is functional. The settings on record: MDA-MB-231, 528 h, time 22 day, read-out: TGI. On the technique in general: Xenograft models place foreign cells or tissue in a host animal.

The subject of data set [9] is MDA-MB-231. Nature of the data set: Antitumor activity against human MDA-MB-231 cells xenografted in BALB/c nude mouse assessed as tumor growth inhibition by measuring test to control ratio at 30 mg/kg/day, po measured every 3 days for 22 days relative to control. The format is functional. The settings on record: time 22 day.
Another data set concerns HepG2. Nature of the data set: cells. The class given is functional, cell-based. Particulars: Homo sapiens, HepG2, 72 h.
In data set [10] the test system is A549. Nature of the data set: cells. Particulars: Homo sapiens, A549, 72 h. The class given is functional, cell-based.
Another data set deals with KYSE-30. The experiment in a line: cells. The class given is functional, cell-based. Particulars: Homo sapiens, KYSE-30, 72 h.
The test system of a further data set is TPC1. The experiment in a line: cells. The format is functional, cell-based. Particulars: Homo sapiens, TPC1, 72 h.
The test system of a further data set is HGC-27. The experiment in a line: cells. The settings on record: Homo sapiens, HGC-27, 72 h. The format is functional, cell-based.
The test system of a further data set is Raji. Nature of the data set: cells. The format is functional, cell-based. The settings on record: Homo sapiens, 72 h.
The subject of a further data set is HL-60. The experiment in a line: cells. The settings on record: Homo sapiens, HL-60, 72 h. The class given is functional, cell-based.
The nature of data set [11]: Cytotoxicity against human CCC-HEL-1 cells assessed as inhibition of cell growth incubated for 72 hrs by MTT assay. The class given is toxicity, cell-based.
The nature of data set [12]: Cytotoxicity against rat H9c2 cells assessed as inhibition of cell growth incubated for 72 hrs by MTT assay. The class given is toxicity, cell-based. (Tetrazolium assays rely on reduction of a dye to a coloured formazan, in cell work by metabolically active cells.)
The target in a further data set is Histone deacetylase 2 (Homo sapiens, UniProt Q92769). The experiment in a line: Inhibition of HDAC2 (unknown origin) incubated for 30 mins by fluorescence based microplate reader analysis.
Histone deacetylase 2, sequence (Q92769 whole entry): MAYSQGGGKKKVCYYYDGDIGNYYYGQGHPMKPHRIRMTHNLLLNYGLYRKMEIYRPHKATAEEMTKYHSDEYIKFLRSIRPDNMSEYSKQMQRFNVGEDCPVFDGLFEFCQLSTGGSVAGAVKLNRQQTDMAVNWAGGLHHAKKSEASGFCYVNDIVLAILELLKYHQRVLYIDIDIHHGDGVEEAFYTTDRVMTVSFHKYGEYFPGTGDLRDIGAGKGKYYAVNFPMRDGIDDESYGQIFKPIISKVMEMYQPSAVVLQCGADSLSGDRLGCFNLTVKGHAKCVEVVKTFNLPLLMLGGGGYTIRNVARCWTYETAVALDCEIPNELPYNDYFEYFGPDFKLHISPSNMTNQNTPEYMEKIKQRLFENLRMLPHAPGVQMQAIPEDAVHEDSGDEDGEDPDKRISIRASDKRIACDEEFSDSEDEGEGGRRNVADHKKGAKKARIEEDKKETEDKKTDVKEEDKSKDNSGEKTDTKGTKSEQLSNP
A further data set has as its target Histone deacetylase 3 (Homo sapiens, UniProt O15379). The experiment in a line: Inhibition of HDAC3 (unknown origin) incubated for 30 mins by fluorescence based microplate reader analysis.
Data set [13] addresses T1, Protein deacetylase HDAC6 (Homo sapiens, UniProt Q9UBN7).
T1 sequence (Q9UBN7 whole entry): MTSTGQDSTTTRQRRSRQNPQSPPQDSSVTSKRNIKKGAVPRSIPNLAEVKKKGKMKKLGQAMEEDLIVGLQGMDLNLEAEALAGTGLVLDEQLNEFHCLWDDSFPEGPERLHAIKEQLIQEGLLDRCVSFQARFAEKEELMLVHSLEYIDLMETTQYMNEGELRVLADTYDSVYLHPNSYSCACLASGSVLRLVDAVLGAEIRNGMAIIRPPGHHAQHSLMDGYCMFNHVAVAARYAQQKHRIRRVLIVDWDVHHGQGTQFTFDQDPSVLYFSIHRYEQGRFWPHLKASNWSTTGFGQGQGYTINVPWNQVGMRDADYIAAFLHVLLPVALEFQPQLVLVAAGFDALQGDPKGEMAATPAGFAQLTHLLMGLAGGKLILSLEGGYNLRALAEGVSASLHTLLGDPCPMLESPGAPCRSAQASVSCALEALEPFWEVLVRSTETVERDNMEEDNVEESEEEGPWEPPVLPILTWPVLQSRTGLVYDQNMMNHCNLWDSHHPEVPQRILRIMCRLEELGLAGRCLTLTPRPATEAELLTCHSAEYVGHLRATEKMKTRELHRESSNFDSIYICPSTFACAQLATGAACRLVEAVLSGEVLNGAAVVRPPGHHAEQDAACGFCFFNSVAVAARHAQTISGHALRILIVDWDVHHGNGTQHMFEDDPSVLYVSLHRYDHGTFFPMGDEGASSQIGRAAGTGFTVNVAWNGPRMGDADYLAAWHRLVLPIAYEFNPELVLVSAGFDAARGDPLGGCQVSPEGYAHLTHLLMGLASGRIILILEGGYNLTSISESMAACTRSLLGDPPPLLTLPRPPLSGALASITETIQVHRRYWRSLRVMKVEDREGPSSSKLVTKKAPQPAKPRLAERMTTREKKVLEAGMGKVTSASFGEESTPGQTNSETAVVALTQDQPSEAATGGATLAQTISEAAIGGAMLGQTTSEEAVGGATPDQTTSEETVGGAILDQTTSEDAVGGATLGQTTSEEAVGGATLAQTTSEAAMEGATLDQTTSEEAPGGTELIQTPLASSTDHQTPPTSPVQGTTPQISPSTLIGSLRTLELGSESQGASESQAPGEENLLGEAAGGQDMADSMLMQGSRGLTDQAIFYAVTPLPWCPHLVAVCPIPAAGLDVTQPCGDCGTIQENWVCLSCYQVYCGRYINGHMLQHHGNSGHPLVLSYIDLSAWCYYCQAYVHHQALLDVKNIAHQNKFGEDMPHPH
The experiment in a line: Inhibition of HDAC6 (unknown origin) incubated for 30 mins by fluorescence based microplate reader analysis.

The test system of data set [14] is A549. The experiment in a line: Antitumor activity against human A549 cells xenografted in zebrafish model assessed as inhibition of cell proliferation incubated for 5 days by fluorescence microscopic analysis. The settings on record: A549, 120 h. The class given is functional, cell-based.
Data set [15] has as its target T1, Protein deacetylase HDAC6. The experiment in a line: Inhibition of HDAC6 (unknown origin).
The next data set concerns HCT-116. The experiment in a line: cells. The format is functional, cell-based. Particulars: Homo sapiens, HCT-116, 72 h.
The test system of another data set is HCT 116 TP53(-/-). Nature of the data set: cells. The class given is functional, cell-based. The settings on record: Homo sapiens, 72 h.
In the next data set the test system is 518A2. Nature of the data set: cells. The format is functional, cell-based. The settings on record: Homo sapiens, 518A2, 72 h.
The next data set relates to Huh-7. Nature of the data set: cells. The settings on record: Homo sapiens, Huh-7, 72 h. The format is functional, cell-based.
The nature of data set [16]: Cytotoxicity against human HDFa cells assessed as inhibition of cell growth incubated for 72 hrs by MTT assay. The class given is toxicity, cell-based.
The test system of data set [17] is CAPAN-1. The experiment in a line: Antitumor activity against human CAPAN-1 cells xenografted in mouse assessed as tumor growth inhibition at 50 mg/kg, ip in presence of vorinostat relative to control. The class given is functional. The settings on record: read-out: TGI.
For data set [18], the system named is MDA-MB-231. Nature of the data set: Antiproliferative activity against human MDA-MB-231 cells.
In the next data set the test system is PC-3. The experiment in a line: Antiproliferative activity against human PC-3 cells. The class given is functional, cell-based.
The next data set has as its system SW-620. Nature of the data set: Antiproliferative activity against human SW620 cells. The class given is functional, cell-based.

Bounds are passed on as bounds.

What is called IC50 is the point on the concentration scale where inhibition reaches its midpoint. By half-life is commonly meant the time in which the quantity being followed falls by half. Usually T/C stands for the result in the treated group divided by that in the control group, in per cent.

Histone deacetylase 1, sequence (Q13547 whole entry): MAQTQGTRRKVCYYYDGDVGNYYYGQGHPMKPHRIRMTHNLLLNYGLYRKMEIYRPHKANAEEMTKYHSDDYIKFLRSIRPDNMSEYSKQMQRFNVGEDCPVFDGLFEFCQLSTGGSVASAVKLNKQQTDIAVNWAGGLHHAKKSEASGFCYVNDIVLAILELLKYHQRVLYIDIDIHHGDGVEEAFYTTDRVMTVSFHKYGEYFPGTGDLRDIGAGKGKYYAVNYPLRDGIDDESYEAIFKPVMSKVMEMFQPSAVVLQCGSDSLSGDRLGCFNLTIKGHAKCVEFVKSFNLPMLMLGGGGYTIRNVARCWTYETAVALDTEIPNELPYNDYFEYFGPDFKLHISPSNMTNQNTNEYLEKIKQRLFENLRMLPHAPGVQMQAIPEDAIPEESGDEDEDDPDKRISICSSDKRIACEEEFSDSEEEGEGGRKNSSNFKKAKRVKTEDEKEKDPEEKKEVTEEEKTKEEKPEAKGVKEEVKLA
Histone deacetylase 3, sequence (O15379 whole entry): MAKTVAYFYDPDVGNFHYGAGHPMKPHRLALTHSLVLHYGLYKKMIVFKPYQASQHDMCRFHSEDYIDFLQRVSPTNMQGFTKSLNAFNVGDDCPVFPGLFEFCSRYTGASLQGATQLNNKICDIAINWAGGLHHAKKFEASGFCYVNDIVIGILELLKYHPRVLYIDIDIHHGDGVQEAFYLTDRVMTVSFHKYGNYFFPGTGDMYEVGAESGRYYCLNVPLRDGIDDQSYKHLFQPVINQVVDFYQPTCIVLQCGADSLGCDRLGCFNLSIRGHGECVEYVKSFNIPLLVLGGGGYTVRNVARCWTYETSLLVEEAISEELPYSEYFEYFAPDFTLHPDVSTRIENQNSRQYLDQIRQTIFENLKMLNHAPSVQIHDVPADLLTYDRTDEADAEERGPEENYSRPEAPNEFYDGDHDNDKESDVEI

With `CC1=C(C)C2C(c3ccc(Cl)cc3)=N[C@@H](CC(=O)Nc3ccc(C(=O)NO)cc3)c3nnc(C)n3C2S1` (stereo partly specified), the IC50 at Histone deacetylase 1 was 21 nM; with CAPAN-1 [1] it was 150 nM; in data set [3], 11 nM. For the same molecule, the “Ratio IC50” value with CAPAN-1 [2] came out at 36. Besides, the inhibition in vivo at 50 mg/kg in the data set on CAPAN-1 [4] worked out at 69%. The inhibition in vivo at 100 mg/kg in the data set with CAPAN-1 [5] stood at 87.7%.

`O=C(CCCCCCC(=O)Nc1nc2ccc(OC(F)(F)F)cc2s1)NO`: the half-life is over 120 min in data set [6] and 56 min in [7]. Further, in the data set on MDA-MB-231 [8], the inhibition in vivo at 30 mg/kg/day is 59%. Further, in the data set on MDA-MB-231 [9], the T/C came out at 55%.

With `O=C(CCCCCCC(=O)Nc1nc2c(s1)C[C@@H](NC(=O)c1cccc3ccccc13)CC2)NO`, the IC50 with HepG2, in the data set on A549 [10], with KYSE-30, in the data set on TPC1, in the data set on HGC-27 and in the data set on Raji was 1220 nM each time. The IC50 in the data set on HL-60 is 1220 nM; at Histone deacetylase 2 it was 1.4 nM; against Histone deacetylase 3 it was 1.4 nM; in data set [13] it was 1.4 nM; in the data set on A549 [14], 1500 nM. Also, the concentration for half-maximal inhibition (IC50) at 72 h came to 24400 nM in data set [11] and 43800 nM in data set [12].

As for `COc1ccc(-c2ocnc2-c2cc(OC)c(OC)c(OC)c2)cc1OCCCC(=O)NO`, the IC50 in data set [15] was about 1000 nM; in the data set on HCT-116, 180 nM; in the data set with HCT 116 TP53(-/-), 180 nM; in the data set with 518A2 it was 180 nM; in the data set with Huh-7 it was 180 nM; in the data set on HepG2, 180 nM. Moreover, the IC50 at 72 h in [16] was over 50000 nM.

Regarding `Cc1sc2c(c1C)C(c1ccc(Cl)cc1)=N[C@@H](CC(=O)OC(C)(C)C)c1nnc(C)n1-2`, the inhibition in vivo at 50 mg/kg in the data set with CAPAN-1 [4] was determined as 41%; in the data set with CAPAN-1 [17], 57%.

In the case of `O=C(/C=C/c1ccc2nn(Cc3ccc(Cl)cc3)cc2c1)NO`, the IC50 was 231 nM in [15], 196 nM in the data set with MDA-MB-231 [18], 196 nM with PC-3 and 196 nM in the data set with SW-620.
